Results as given in PubChem BioAssay AID720588 (Broad Institute, 2013).
Activity calls are given as the source filed them.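 How the source made its calls: active means fitted curve falls past a set limit of signal loss at no more than twice the top dose; inconclusive means flat fit between 30 and 70% signal loss, or poor fit; inactive means signal rise, flat within 30%, or crossing too high.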

assay: ATP-based viability loss in HEK293T cells – cell-based, CellTiter-Glo luminescence, cherry-pick, set 3, cytotoxicity control, dose response (AID 720588); settings: HEK293T viability, CellTiter-Glo ATP luminescence, 72 h; at 21 µM (top of the series)

| Structure (SMILES) | activity change, negative = cytotoxicity |
| --- | --- |
| C[C@H](CO)N1C[C@H](C)[C@H](CN(C)CC2CCCCC2)Oc2ccc(NC(=O)CCCCCC(=O)Nc3ccccc3N)cc2CC1=O | 5.04% (inactive) |

same assay, conditions: HEK293T viability, CellTiter-Glo ATP luminescence, 72 h; at 23.5 µM (top of the series)

| Structure (SMILES) | activity change, negative = cytotoxicity |
| --- | --- |
| COc1ccccc1NC(=O)N1[C@@H]2CNC[C@H]1[C@@H]2c1ccc(-c2ccc(C#N)cc2)cc1 | -30.3% (inactive) |

same assay, conditions: HEK293T viability, CellTiter-Glo ATP luminescence, 72 h; at 26 µM (top of the series)

| Structure (SMILES) | activity change, negative = cytotoxicity |
| --- | --- |
| COc1ccc2cc(C(N)=O)/c(=N\NC(=O)c3ccccc3)oc2c1 | -13.7% (inactive) |
| Cc1noc(C)c1C(=O)Nc1sccc1C(N)=O | 18% (inactive) |
| Cc1c(-c2nc(-c3ccc(C(C)(C)C)cc3)no2)n(C)oc1=O | -15.2% (inactive) |
| CCCCCCN(C(=O)CCCCCN1C(=O)NC(c2ccc(Cl)cc2)C(C(=O)OCc2ccccc2)=C1C)C(C(=O)NCCCC)c1ccc(OCC(=O)OC)c(C(=O)OC)c1 (stereo unspecified) | -3.96% (inactive) |
| O=C(/C=C/c1ccc(Cl)cc1Cl)N(Cc1ccc(Cl)cc1)C1CCS(=O)(=O)C1 (stereo unspecified) | -14.5% (inactive) |
| Cc1noc(C)c1NC(=O)Nc1ccc2c(c1)CC(=O)N([C@H](C)CO)C[C@@H](C)[C@@H](CN(C)Cc1ccc(Cl)c(Cl)c1)O2 | 56.7% (inactive) |
| CCCCNC1=CC(=O)C(=O)c2ccccc21 | -32.1% (inactive) |
| COc1cc(-c2cnc3c(NC=O)cc(-c4cccc(NC(C)=O)c4)cn23)cc(OC)c1OC | 27.3% (inactive) |
| O=C1CCCC2=C1C(c1ccccn1)Nc1ccc(C(=O)c3ccccc3)cc1N2 (stereo unspecified) | 7.12% (inactive) |
| C[C@@H]1CN([C@H](C)CO)C(=O)c2cc(NC(=O)CCCCCC(=O)Nc3ccccc3N)ccc2O[C@@H]1CN(C)Cc1ccc(Cl)c(Cl)c1 | -5.39% (inactive) |
| CCN(CC)C(=O)CN1C(=O)C(=O)c2ccccc21 | -11% (inactive) |
| CC(=O)Nc1cc(C(=O)NCc2ccco2)ccc1Sc1ccc(F)cc1 | 12.1% (inactive) |
| COC(=O)c1cccc(NC(=O)NC(=O)c2ccc(Cl)cc2)c1 | -17% (inactive) |
| C/C=C/c1ccc([C@H]2[C@@H](CO)N3C(=O)CN(S(=O)(=O)c4cccc(F)c4)C[C@@H]23)cc1 | 34.3% (inactive) |
| CC(=NNc1ccc2ccccc2n1)c1ccccc1O | -9.29% (inactive) |
| O=C(O)c1ccccc1C(=O)Nc1ccc(Oc2cccc3ccccc23)cc1 | -24.2% (inactive) |
| Cc1ccc(NC(=O)COC(=O)c2ccc3c(c2)OCO3)cc1S(=O)(=O)N1CCCCC1 | -15.5% (inactive) |
| COc1cc(/C=C/C(=O)CC(=O)/C=C/c2ccc(O)c(OC)c2)ccc1O | -41.3% (inactive) |
| CCc1ccc(/C=C2\SC(=S)N(CCCC(=O)Nc3cc(C)on3)C2=O)cc1 | -27.1% (inactive) |
| CO[C@H]1CN(C)C(=O)c2cc(NC(=O)NC(C)C)ccc2OC[C@H](C)N(Cc2ccc(-c3ccccn3)cc2)C[C@@H]1C | -13.6% (inactive) |
| CCC(C)Cn1c(O)cc2nn(-c3nc4ccccc4s3)c(=O)c-2c1C (stereo unspecified) | 3.58% (inactive) |
| c1ccc(-c2ccc([C@H]3[C@H]4CNC[C@@H]3N4Cc3cc(-c4ccccc4)on3)cc2)cc1 | 26.6% (inactive) |
| N#C[C@H]1[C@H](c2ccc(-c3ccccc3F)cc2)[C@@H](CO)N1C(=O)Cc1ccccc1 | -28.3% (inactive) |
| Cc1cc(C)cc(C(=O)NC(=S)Nc2ccc(Cc3ccncc3)cc2)c1 | -25.9% (inactive) |
| COC(=O)Cc1[nH]n(-c2nc3ccccc3s2)c(=O)c1C(C)=Nc1ccc(C)cc1 | -30% (inactive) |

| Structure (SMILES) | activity change, negative = cytotoxicity |
| --- | --- |
| Cc1ccsc1/C=N/Nc1ccc(C(=O)O)cc1 | -12.7% (inactive) |
| C[C@@H]1CN([C@H](C)CO)C(=O)CCCn2nncc2CO[C@H]1CN(C)Cc1ccc(Oc2ccccc2)cc1 | -3.49% (inactive) |
| CC(C)(C)[S@](=O)N1Cc2cc(C(=O)NCC(F)(F)F)nc(-c3cccc(-c4cccc(F)c4)c3)c2[C@@H]1CCO | -2.37% (inactive) |
| C=CCn1c(O)c(N=Nc2ccccc2)c2ccccc21 | 11.3% (inactive) |
| C[C@@H]1CN([C@@H](C)CO)C(=O)c2cc(NS(=O)(=O)c3ccccc3)ccc2O[C@@H]1CN(C)Cc1ccc(C(=O)Nc2ccccc2N)cc1 | -19.2% (inactive) |
| N#C[C@H]1[C@H](c2ccc(-c3ccccc3F)cc2)[C@@H](CO)N1C(=O)c1ccccn1 | -19.7% (inactive) |
| CCC1=Nc2cc(C(=O)NCC3CCCO3)ccc2Sc2ccc(Br)cc21 (stereo unspecified) | -27.1% (inactive) |
| O=C(C[C@@H]1C[C@H]2c3cc(NC(=O)CC4CC4)ccc3O[C@H]2[C@H](CO)O1)NCc1ccccc1F | 13.3% (inactive) |
| CC(=O)Nc1ccc(OCC(=O)N(CC(C)C)C2CCS(=O)(=O)C2)cc1 (stereo unspecified) | 10.7% (inactive) |
| COc1cc(/C=N/NS(=O)(=O)c2ccc3ccccc3c2)ccc1OCc1ccc(C(=O)O)cc1 | -17.5% (inactive) |
| COc1ccc(/C=C2\SC(=O)N(CCCC(=O)Nc3cc(Cl)ccc3C(=O)O)C2=O)cc1 | -2.58% (inactive) |
| CN(C)C(=O)c1cccc(-c2ccc(C3[C@@H]4CN(Cc5nccs5)C[C@H]3N4)cc2)c1 (stereo partly specified) | 51.7% (inactive) |
| O=C(NC(=O)c1ccccc1)Nc1ccccc1 | -31.5% (inactive) |
| COCCCNc1ccn2nc(-c3ccccc3)cc2n1 | -27.1% (inactive) |
| COc1ccc(C2=Nn3c([n+](C)c4ccccc43)SC2)cc1 | -33.2% (inactive) |
| COc1cc(/C=N/NC(=O)c2csc3c2CCCC3)cc(OC)c1O | 0.867% (inactive) |
| N#C[C@H]1N[C@H](CO)[C@H]1c1ccc(C#Cc2ccc(F)cc2)cc1 | -13% (inactive) |
| O=C(CN1C(=O)c2ccccc2S1(=O)=O)c1ccc(F)cc1 | 6.26% (inactive) |
| C#CCOCCOCCOCCNc1nc(N2CCN(C(=O)CCCCCCCCCCNC(=O)Cn3cc(C[C@@H](C)O)nn3)CC2)nc(N2CCN(C(=O)CCCCCCCCCCNC(=O)[C@H](CO)n3cc(CCCSC)nn3)CC2)n1 | 23.5% (inactive) |
| COc1ccc2nc(-c3ccc(F)cc3)sc2c1 | -5.49% (inactive) |
| CCc1c(C(=O)NN2C(=O)C3CCCCC3C2=O)csc1C (stereo unspecified) | -15.1% (inactive) |
| CC(=O)c1ccc(N=C2C(=O)Nc3ccccc32)cc1 | -11.5% (inactive) |
| C[C@H](CO)N1C[C@H](C)[C@H](CN(C)Cc2ccc(C(F)(F)F)cc2)Oc2c(NS(=O)(=O)c3ccc(Cl)cc3)cccc2C1=O | -9.18% (inactive) |
| CN(C(=O)COC(=O)c1cc(-c2ccccc2Cl)nc2ccccc12)C1CCS(=O)(=O)C1 (stereo unspecified) | -26.1% (inactive) |
| CCOc1ccc(-c2cc(CCCC(=O)N3CCN(c4ccc(OC)cc4)CC3)no2)cc1 | -8.72% (inactive) |

| Structure (SMILES) | activity change, negative = cytotoxicity |
| --- | --- |
| Cc1ccc(OCCNC(=O)c2cccc(S(=O)(=O)NCc3ccccc3)c2)cc1 | 12.3% (inactive) |
| COc1ccc(OC)c(-c2cc(C(F)(F)F)c3c(n2)sc2c(O)cc(=O)[nH]c23)c1 | 2.36% (inactive) |
| Cc1c(CCOC(=O)CC23CC4CC(CC(C)(C4)C2)C3)sc[n+]1CC(=O)c1ccccc1 | 12.1% (inactive) |
| Nc1ccc2oc(-c3cc(Br)ccc3Cl)nc2c1 | 19.3% (inactive) |
| COc1ccc(C=NNc2nc3ccccc3s2)cc1 | -21.8% (inactive) |
| COc1cc(/C=N\Nc2nc(-c3ccc(C)cc3)c(NC(C)=O)s2)ccc1O | -4.57% (inactive) |
| O=C(CCCN1C(=O)S/C(=C\c2ccccc2)C1=O)NNC(=O)c1ccccc1O | -28.3% (inactive) |
| O=C(C[C@@H]1CC[C@@H]2[C@H](COC[C@@H](O)CN2S(=O)(=O)c2ccc(F)cc2)O1)NCc1ccc(Cl)c(Cl)c1 | 2.6% (inactive) |
| Nc1sc(-c2ccccc2)cc1-c1n[nH]c(=S)n1C1CCCCC1 | -4.9% (inactive) |
| CCOc1ccc(-c2noc(CCC(=O)O)n2)cc1 | -18.9% (inactive) |
| CC1(C(=O)NCc2ccco2)Cc2c(-c3cccc(C(N)=O)c3)ccnc2O1 (stereo unspecified) | -5.89% (inactive) |
| O=C(CCCN1C(=O)/C(=C/c2ccccc2Cl)SC1=S)NNC(=O)c1ccc(Cl)cc1 | 24.3% (inactive) |
| N#Cc1cccc(-c2ccc(C3[C@@H]4CN(C(=O)Cc5ccncc5)C[C@H]3N4)cc2)c1 (stereo partly specified) | 35.3% (inactive) |
| CN(C)Cc1c(O)ccc2c1O/C(=C\C=C\c1ccccc1)C2=O | -32.1% (inactive) |
| CCCn1c(C)cc(C(=O)CN2C(=O)c3ccccc3S2(=O)=O)c1C | 4.1% (inactive) |
| COc1ccc(/C=N/Nc2ccc(C(=O)O)cc2)cc1Br | -6.35% (inactive) |
| COC(=O)C[C@H]1CC[C@H]2[C@@H](COc3ccc(NC(=O)Nc4cccc(Cl)c4)cc3C(=O)N2C)O1 | -24.3% (inactive) |
| O=C1Nc2ccccc2C1=Nc1ccccc1-c1ccccc1 | -21.1% (inactive) |
| CC(=O)c1ccc(N=Nc2ccc(C)cc2)cc1 | -17% (inactive) |
| Cc1c(N=Cc2cc(Br)cc(Br)c2O)cccc1C(=O)O | 6.56% (inactive) |
| C/C=C/c1ccc(C2[C@@H]3CN(C(=O)Cc4ccccc4)C[C@H]2N3)cc1 (stereo partly specified) | 18% (inactive) |
| O=c1c2ccccc2oc2ccc(C#CC3(O)CCCCC3)cc12 | -6.65% (inactive) |
| O=C(O)c1cccc(N/N=C/c2ccc(OC(F)(F)F)cc2)c1 | 11.3% (inactive) |
| COc1ccc(CNc2ncc(-c3ccc(F)cc3)n2C)c2ccccc12 | -13.3% (inactive) |
